According to patent US10081615B2, “Sulfamate derivative compounds for use in treating or alleviating pain” (Bio-Pharm Solutions Co., Ltd., priority 2013, dated 2018):

Key:
CFA-induced pain model = test: Antiallodynic activity on Complete Freund's Adjuvant (CFA)-induced inflammatory pain model (von Frey); assay type: in vivo, Sprague-Dawley rats; details: Rattus norvegicus, ip
Protocol: Male, Sprague-Dawley rats (200-220 g, Nara Bio, Korea) were habituated for 1 week before surgery and allowed free access to food and water throughout the experimentation. Room temperature and humidity were maintained at 24±2° C. and 50±10%, respectively.
CFA-induced inflammatory pain was induced by the procedure of Nagakura et al. (2003) and Gregory P. et al. (2010) with minor modifications. CFA (sigma, USA) was injected into the left plantar with a 100 ul volume under gaseous anesthesia with isoflurane and NO2 with a 4:4 flow ratio. Sham controls were injected with 100 ul of saline and preparation of the vehicle controls were identical to the group treated with compound, except for administration of vehicles without compound in the vehicle control group.
Tactile sensitivity (mechanical allodynia) was evaluated using von Frey monofilaments before and after treatment, and the animals were included in the study only if the withdrawal threshold value was less than 4 g. One week after surgery, CFA-infused animals (n=4˜6), sham-operated animals (n=12), and vehicle-operated animals (n=17) were tested for tactile sensitivity with von Frey monofilaments, with 3 trials for each animal. All animals were placed in a stainless steel mesh chamber and habituated for 30 min in the test cage. The tactile sensitivity for the ipsilateral hind paw was measured using the up-and-down method (Dixon, 1980) with seven von Frey monofilaments (0.4, 1, 2, 4, 6, 8, and 15 g) in 3 trials. The tactile sensitivity test was followed by Dixon's method (Dixon, 1980). The 50% paw withdrawal threshold for each paw was calculated using the following formula: [Xth] log=[vFr] log+ky where [vFr] is the force of the last von Frey used, k=0.2249 which is the average interval (in log units) between the von Frey monofilaments, and y is a value that depends upon the pattern of the withdrawal responses (Dixon, 1980).
The antiallodynic effect of the compound of Example was evaluated at the doses of 10, 30 and 60 mg/kg (n=4˜6), and were intraperitoneally administered in a volume of 5 ul/g by bodyweight in a vehicle of 30% (v/v) PEG. […]
The relative values compared to the sham (% control) were calculated and are shown in Table 4, which show an antiallodynic effect of the compound of examples in the CFA-induced pain model in rats.

[1] = tested on: Post operation-induced pain model; test: Antiallodynic activity on post operative pain-induced pain model (von Frey); assay type: in vivo, Sprague-Dawley rats; details: Rattus norvegicus, ip, 0.5 h, read-out: Post Operation: ED50 mg/kg
Protocol: Male Sprague-Dawley rats (Orient Bio, Korea), 300-320 g, total of 201 rats were used (details in Table 7). Rats were habituated at least 3 days before surgery and free access to food and water (room temperature and humidity were maintained at […] and 50±10%, respectively). The process of performing the post-operation model's surgery was adapted from Brennan et al (1996). At first, rats with allodynia (threshold valueless than 8 g) were excluded in Pre-von Frey Test. During the post-operation surgery, rats were anesthetized under gaseous anesthesia with 2% isoflurane. Rats were laid face down on a plate fixed at 37° C. to prevent against hypothermia. The ipsilateral plantar aspect (left side) of the hind paw was prepared in a sterile manner with a 10% povidone-iodine solution. A longitudinal incision (1 cm) (FIG. 2-A) was made with a blade (number 11) through the skin and fascia of the ipsilateral plantar aspect of the foot, starting from 0.5 cm below the proximal edge of the heel and extending toward the toes. Rats' plantar muscles were elevated and incised longitudinally (FIG. 2-B). After hemostasis with gentle pressure, the skin was opposed with 2 mattress sutures (4-0 Dafilon) (FIG. 2-C). The wound site was covered with a 10% povidone-iodine solution gauze and injected with antibiotics (gentamicin, 8 mg/kg, ip). The sutures were removed under halothane anesthesia approximately 30 hours later, at the end of post-operative day 1.
After 2-3 days of recovery, rats with a good response (threshold less than 4 g) in Pre-von Frey Test were selected. According to this response, we made three groups with each group having equal average responses: Group 1, post-operation and drug treated; Group 2, post-operation and vehicle treated; Group 3, no post-operation and vehicle treated. In this study, Group 3 was the sham control (positive) group. The group 2 was used to check for possible failures to generate post-operative pain.
For efficacy measure, the threshold value of group C was assigned 100% efficacy, and the percentage of the threshold values of group A compared to group C (for each different dose level) were calculated as the efficacies. Base on these efficacy values, ED50 was calculated using log fitting. If there was no clear ED50, then we marked the percent efficacy at the highest tested dose or larger than highest tested dose.
For pain threshold test, all animals were placed in a stainless steel meshed chamber and habituated for 30 min in the test box. The tactile sensitivity of the ipsilateral hind paw was measured using the up-and-down method (Dixon, 1980) with seven von Frey monofilaments (0.4, 1, 2, 4, 6, 8, and 15 g) using 3 trials. The 50% paw withdrawal threshold for each paw was calculated using the following formula: [Xth] log=[vFr] log+ky, where [vFr] is the force of the last von Frey filament used, k=0.2249 which is the average interval (in log units) between the von Frey monofilaments, y which is a value that depends upon the pattern of withdrawal responses, and Xth which is the threshold value (Dixon, 1980).
Drugs were dissolved 30% PEG400 for example 60, 0.9% saline for Pregabalin, 20% Tween80 for Tylenol, 0.9% saline for Topiramate. These vehicles were selected depending on the compound's solubility. Intraperitoneal injection (5 μl/g) was done for all drugs.
The relative values compared to the sham (% control) were calculated and shown in Table 8, which show an antiallodynic effect of the compound of examples on Post operation-induced pain model in rats.

[2] = tested on: Vincristine-induced pain model; test: Antiallodynic activity in the vincristine-induced pain model (von Frey); assay type: in vivo, Sprague-Dawley rats; details: rat, intraperitoneal
Protocol: Male, Sprague-Dawley rats (300-320 g, Nara Bio, Korea) were habituated for 1 week before surgery and allowed free access to food and water throughout the experimentation. Room temperature and humidity were maintained at 24±2° C. and 50±10%, respectively.
The vincristine-induced pain model was established by the procedure of Natsuko et al. (2001) with minor modifications. Vincristine was intravenously infused continuously for 14 days using a mini-osmotic pump as follows: Vincristine sulfate solution (Hospira, Australia) was diluted with 0.9% saline to a final dose of 30 ug/kg. The pumps (Alzet Model 2002, USA) were filled with the vincristine solution and primed by incubation at 37° C. for 4 h before the infusion. Briefly, animals were put under gaseous anesthesia with isoflurane and NO with a 4:4 flow ratio. A catheter made from PE-60 tubing was inserted into an external jugular vein in the rat. Sham controls were prepared in the same manner, with the external jugular vein exposed, but not cut down. Preparation of the vehicle controls were identical to the group treated with compound, except for administration of vehicles without compound in the vehicle control group.
Tactile sensitivity (mechanical allodynia) was evaluated using von Frey monofilaments before and after treatment, and the animals were included in the study only if the withdrawal threshold value was less than 4 g. One week after surgery, vincristine-infused animals (n=6), sham-operated animals (n=12) and vehicle-operated (n=18) animals were tested for tactile sensitivity with von Frey monofilaments with 3 trials in each animal. All animals were placed in a stainless steel mesh chamber and habituated for 30 min in the test cage. The tactile sensitivity for the ipsilateral hind paw was measured using the up-and-down method (Dixon, 1980) with seven von Frey monofilaments (0.4, 1, 2, 4, 6, 8, and 15 g) in 3 trials. The tactile sensitivity test was followed by Dixon's method. The 50% paw withdrawal threshold for each paw was calculated using the following formula: [Xth] log=[vFr] log+ky where [vFr] is the force of the last von Frey used, k=0.2249 which is the average interval (in log units) between the von Frey monofilaments, and y is a value that depends upon the pattern of withdrawal responses (Dixon, 1980).
[…] The test was performed at the peak time of efficacy (0.5 hr) after compound administration.
The relative values compared to the sham (% control) were calculated and are shown in Table 11, which show an antiallodynic effect of the compound of examples in the vincristine-induced pain model in rats.

[3] = tested on: acetic acid-induced writhes; test: Writhing test (acetic acid); assay type: in vivo, ICR mice; details: Mus musculus, po, 0.5 h, read-out: Writh test: ED50 mg/kg
Protocol: To examine the pain relief effect of the sulfamate derivative compounds, a writhing test was referring to Fischer, L. G. et al. (2008).
ICR mice (male, 24-28 g; Orient Bio, Korea) were habituated before test in test room for 1 hour. Animals were fasted for 2 hr before administration of compounds. […] All compounds were dissolved in a vehicle of 30% (v/v) PEG 400 or 20% (v/v) Tween 80. The control group was treated with the vehicle without compounds.
[…] Animals were habituated in the cage for 5 min. 5 min after habituation, the number of writhes (abdominal constriction) was counted for 15 minutes referring to Korzeniewska-Rybicka, I. et al. (1998) and compared with that of the control.

SNL model = test: Antiallodynic activity in the Chung model (SNL, Spinal Nerve Ligation; von Frey); assay type: in vivo, Sprague-Dawley rats; details: Rattus norvegicus, po, 0.5 h, read-out: SNL model: effect (%) compared to control, rat, oral, 3.5 mg/kg administered, 0.5 h
Protocol: Male Sprague-Dawley rats (200-220 g, Orient Bio, Korea) were habituated for 1 week before the experiment and allowed free access to food and water throughout the experimentation. Room temperature and humidity were maintained at 24±2° C. and 50±10%, respectively. The neuropathic surgery (SNL, Spinal Nerve Ligation) model was done as described in Kim and Chung (1992). Briefly, an animal was put under gaseous anesthesia with isoflurane and NO2 with a 4:4 flow ratio. The left lumbar spinal nerves L5 and L6 were isolated and tightly ligated with 4-0 silk thread. The wound was treated with a gentamicin antibiotic solution (4 mg/kg, 4 ul/g by bodyweight), and the wound muscle was closed with Catgut® chrome 4/0 thread and the skin was closed with Dafilon 4/0 thread. Sham controls were prepared in the same manner with the spinal nerves were exposed, but no ligated L5 and L6 nerves. Preparation of the vehicle controls were identical to the group treated with compound, except for administration of vehicles without compound in the vehicle control group.
Tactile sensitivity (mechanical allodynia) was evaluated using von Frey monofilaments before and after treatment and animals the animals were included in the study only if the withdrawal threshold value was less than 4 g. One week after surgery, SNL-operated animals (n=4˜6), sham-operated animals (n=4˜10) and vehicle-operated animals (n=4˜13) were tested for tactile sensitivity with von Frey monofilaments with 3 trials in each animal. All animals were placed in a stainless steel mesh chamber and habituated for 30 min in the test cage. The tactile sensitivity for ipsilateral hind paw was measured using the up-and-down method (Dixon, 1980) with seven von Frey monofilaments (0.4, 1, 2, 4, 6, 8, and 15 g) in 3 trials. The tactile sensitivity test was followed by Dixon's method (Dixon, 1980). The 50% paw withdrawal threshold for each paw was calculated using the following formula: [Xth] log=[vFr] log+ky where [vFr] is the force of the last von Frey used, k=0.2249 which is the average interval (in log units) between the von Frey monofilaments, and y is a value that depends upon the pattern of withdrawal responses (Dixon, 1980).
All animals were fasted for 18 h before the administration of the compounds. The antiallodynic effect of the compounds were evaluated at the various doses (n=5˜6), orally administered in a volume of 5 ul/g by bodyweight in a vehicle of 30% (v/v) PEG 400 (Example 7) or 20% (v/v) Tween 80 (Examples 5 and 6) or saline. […]
The relative values compared to the sham group (% control) were calculated and are shown in Table 5, which show an antiallodynic effect of the test compounds in the SNL model in rats.

Question: Which results are given for `CC1(C)Oc2ccccc2[C@@H](COS([NH-])(=O)=O)O1.[Na+]` [Example 59, Sodium (S)-(((2,2-dimethyl-4H-benzo[d][1,3]dioxin-4-yl)methoxy)sulfonyl)amide Trihydrate]?
Answer: ED50 (CFA-induced pain model; 0.5 h, read-out: CFA model: ED50 mg/kg): 20.2 mg/kg; ED50 [1]: 10.9 mg/kg; ED50 ([2]; ip, 0.5 h): 2.6 mg/kg; ED50 [3]: 81.4 mg/kg

Question: For `CC1(C)Oc2ccccc2[C@@H](COS([NH-])(=O)=O)O1.[K+]` [Example 71, Potassium (S)-(((2,2-dimethyl-4H-benzo[d][1,3]dioxin-4-yl)methoxy)sulfonyl)amide], which response vs control in vivo at 25 mg/kg (CFA-induced pain model; read-out: CFA model: effect (%) compared to control) is on record?
Answer: 24.7%

Question: What about the “Vincristine model: effect (%) compared to control” value ([2]; 2.4 mg/kg administered, time not given) of the same compound?
Answer: (96.2%)

Question: And the response vs control in vivo at 3.5 mg/kg (SNL model)?
Answer: 15.9%
